The assay deals with T1, Lysosomal acid glucosylceramidase (Bos taurus, UniProt Q2KHZ8).
T1 sequence (Q2KHZ8 whole entry): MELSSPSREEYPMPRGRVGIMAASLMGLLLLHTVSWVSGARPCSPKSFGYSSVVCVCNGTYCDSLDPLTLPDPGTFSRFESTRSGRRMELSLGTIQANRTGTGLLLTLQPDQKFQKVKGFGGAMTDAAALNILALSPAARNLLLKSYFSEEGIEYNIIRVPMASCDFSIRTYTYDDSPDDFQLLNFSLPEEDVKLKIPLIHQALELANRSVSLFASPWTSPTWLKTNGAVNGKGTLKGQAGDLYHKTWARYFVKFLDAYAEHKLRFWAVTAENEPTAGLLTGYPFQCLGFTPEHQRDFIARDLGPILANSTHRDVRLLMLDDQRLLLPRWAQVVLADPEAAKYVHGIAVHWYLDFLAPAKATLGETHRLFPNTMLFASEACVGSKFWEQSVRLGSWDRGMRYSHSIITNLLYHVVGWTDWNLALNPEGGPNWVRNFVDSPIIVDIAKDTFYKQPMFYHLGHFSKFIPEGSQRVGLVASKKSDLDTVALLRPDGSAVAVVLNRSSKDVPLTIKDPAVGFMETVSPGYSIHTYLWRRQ
The experiment in a line: Inhibition of bovine liver beta-glucosidase.

One may read the IC50 as the point on the concentration scale where inhibition reaches its midpoint. As for `OC[C@H](O)[C@@H]1NC[C@@H]1O`, half-maximal inhibition (IC50) required 997 µM.

Values taken from BindingDB's records for doi:10.1016/j.bmc.2013.03.004 (University of Oxford, 2013).
